Data set [1] has as its system TPCK-treated trypsin (Worthington). Briefly: 0.01 mg mL^–1 trypsin (1 : 100 trypsin : proHD6 (w/w)) in 100 mM Tris–HCl, 20 mM CaCl2, pH 8.0. The following applies: room temperature, up to 120 min.
Data set [2] in a line: intestinal luminal aspirates obtained by endoscopy (ileal fluid). The note with it: human.
Data set [3] concerns the molecule itself. Briefly: AUC; sedimentation equilibrium; proHD6 30, 60 and 120 μM in 10 mM sodium phosphate pH 7.4, 30 000, 36 000 and 42 000 rpm, 20 °C, global fit with SEDPHAT; monomer to dimer.

In general, stoichiometry N refers to the number of molecules, sites or subunits per partner or assembly.

“Also recorded” adds a separate entry of the source.

Regarding AFTCHCRRSCYSTEYSYGTCTVMGINHRFCCL, the not cleaved result in data set [1] is “resistant to trypsin-catalyzed degradation”.
For the molecule “EPLQAEDDPLQAKAYEADAQEQRGANDQDFAVSFAEDASSSLRALGSTRAFTCHCRRSCYSTEYSYGTCTVMGINHRFCCL”, the cleaved bond result in data set [2] is “Arg68-Ala69”; in data set [1], “Arg68-Ala69, 1 min”. Moreover, the fragment found entry in data set [1] is “EPLQAEDDPLQAK, 1 min; also recorded: GANDQDFAVSFAEDASSSLR, 1 min”.

B1: proHD6 (81-residue propeptide of human α-defensin 6) (natural protein, UniProt Q01524 20-100, looked up)
chain: EPLQAEDDPLQAKAYEADAQEQRGANDQDFAVSFAEDASSSLRALGSTRAFTCHCRRSCYSTEYSYGTCTVMGINHRFCCL
notes: N-terminus EPLQ; Oxidatively folded regioisomer with the three native disulfide bonds (Cys4-Cys31, Cys6-Cys20, Cys10-Cys30, numbers count on mature HD6); Ulp1 cleavage leaves the native 81-residue peptide; also called HD6 propeptide; native proHD6; source: E. coli BL21(DE3) as His6-SUMO-proHD6, purified (Ni-NTA), Ulp1 digestion, reduction, oxidative folding, preparative HPLC; not shown: His6, …
B1: the “stoichiometry N” value in data set [3] was 2.

The record behind these values is article PMC4827351 (Chemical Science, 2015).
